Reference: patent US5908788A, “Method of monitoring patient compliance with medications prescriptions” (priority 1996, dated 1999)
Several values for one entry are separate records, joined by “and”; a condition that tells them apart may be missing. Equal entries are not always repeated.

Columns and labels:
[1] = in vivo
Source text: To determine compliance with the prescribed medication dose, random urine samples are obtained from the patient and analyzed in accordance with the invention as described in FIG. 9. […] The raw urine medication concentration (u) is next converted to a normalized urine medication concentration (nu) as discussed below. Over time, a normalized urine medication concentration-daily medication dose relationship is derived for each individual patient, which can be compared to the relationship expected for that particular patient. Alternatively, by adjusting the normalized urine medication concentration relative to the urinary pharmacokinetic parameters for each medication, a urinary-parameter normalized urine medication concentration (nup) may be calculated and compared to that expected for an average patient to determine compliance with the patient's prescribe medication dose.
nu=u'=u·(v/v')=u·UVPRF=u·(k1
The relationships for any medication family between nu and the medication pharmacokinetic parameters are empirically developed using regression analysis.
nup (patient body weight/k3)·u·UVPRF (19)
Two methods of interpreting urine medication results for compliance monitoring have now been developed. The first and most primitive method is to simply establish, using data from controls and compliant patients, mean drug levels and the expected ranges (minimums and maximums) for the nup of each particular medication at each particular daily, total dose amount.

[2] = Urine opiate concentration (codeine, oxycodone), urinary-parameter normalized; type: in vivo, human
Experimental: (§1) Shown in FIG. 13 are mean nup values for codeine as a function of daily, total dose. […]. Her mean codeine level while stabilized on 90 mg of codeine qd, as shown on FIG. 13, should be 19,102 +/-3840 ng/ml.
patient three is a person requiring opioid medications for severe arachnoiditis following surgery in the lumber spine. They were prescribed oxycodone without acetaminophen since they are status post removal of one kidney because of renal carcinoma. Shown in Table K are their oxycodone levels (40 mg per day total dose) which are within acceptable limits of 800-1600 ng/ml.

[3] = Urine Coc level of patient on codeine; type: in vivo, human; conditions: Table J, patient four
Experimental: as §1

[4] = Urine methadone concentration (FPIA) of maintenance patients, with calculated plasma methadone concentration and urinary-parameter normalized urine concentration
Source text: The unadulterated sample is next analyzed for raw urine methadone concentration, preferably using fluorescence polarization immunoassay (FPIA) technology. In this regard an Abbott TDX or ADX Analyzer may be profitably employed. Other standard analytical methods may also be used such as chromatography or other types of immunoassay. […]
where cl is renal clearance (ml/min), u is raw urine methadone concentration (ng/ml), v is the volume of urine collected in time (ml/min) or otherwise known as the urine volume production rate, and p is the measured plasma methadone concentration at the midpoint of the collection period (ng/ml).
Combining all of the above considerations, plasma methadone concentrations can be calculated by substituting Equations (2, 8, 9 and 10) in Equation (3): [formula] where values of u, specific gravity, and pH are known from previous test results on a patient's spot urine sample. The equation may be more generally expressed as follows: […]
p=k3 ·u·(k1 SGF-k2)/k4
FIG. 6 was developed by utilizing data from 8300 urine samples from 150 methadone maintenance patients on controlled daily methadone dosages.
The parameters of a patient's urine, such as pH and specific gravity, vary from one day to the next dependant upon the type and quantities of foods and beverages ingested. Additionally, individuals metabolizes these substances, as well as methadone, at different rates. To account for these variations, a urinary-parameter normalized urine methadone concentration, nup, is calculated that adjusts measured raw urine methadone concentration, u, in accordance with a prescribed methadone dose, urine specific gravity, patient's current body weight (lbs) and urine pH. The relationship between u, pH, dose and specific gravity was empirically developed using nonlinear regression analysis. […]
nup =(k3 /DOSE)^k4 ·(k5 /pH)^k6 […]
Given this value, another set of prediction equations specifying the allowable range for the next measured nup for a particular patient, given a sample size of n, a mean nup for an individual patient and either the patient standard deviation or the population standard deviation (whichever is least), can be calculated as shown in Hahn and Meeker. If the measured value is within the acceptable statistical range, given a previously calculated mean and standard deviation, then it is accepted. If the value is too high or too low, this is marked on the urine drug screen under the column called Pred, as shown in clinical cases #'s 4 and 5, Tables F and G.

migraine = test: Clinical cases: migraine in patients on methadone maintenance; type: in vivo, human
[5] = Renal excretion rate in timed urine aliquots of compliant control subjects; type: in vivo, human; conditions: as function of urine volume production rate, during a typical day
[6] = to deter illicit opioid use; past studies; cited from earlier work
[7] = Plasma methadone calculated from spot urine versus measured plasma methadone (FIG. 7)
[8] = Table A, compliant patient, dose 60 mg/day, individual dates
[9] = Table A, compliant patient, dose 70 mg/day, individual dates
[10] = Table A, mean of 12 tests, 60-70 mg/day
[11] = Table B, patient one, dose 45 mg, individual dates
[12] = Table B, patient one, mean of 12 tests, 45 mg
[13] = Table C, patient two, mean of 12 tests, dose 40-100
[14] = Table D, patient two (barbiturates discontinued), dose 130
[15] = Table D, patient two, mean of 12 tests, dose 110-130
[16] = Table G, mean of 13 tests, dose 130
[17] = patient two, 130 mg per day methadone

Cc1nnc2n1-c1ccc(Cl)cc1C(c1ccccc1)=NC2 [alprazolam]
Xanax level, mean ([1]; human): 4268 ng/mL | SD of alprazolam normalized concentration, % of mean [1]: ~15% | SEE of nup = k*Dose [1]: 210 | importance of urine pH for nup [1]: not important

COc1ccc2c3c1O[C@H]1C(=O)CC[C@@]4(O)[C@@H](C2)N(C)CC[C@]314 [oxycodone]
nup, Opi (oxycodone), mean ([2]; Table K, patient three, mean of 12 tests, 40 mg per day): 1206 ng/mL | oxycodone levels, acceptable limits ([2]; patient three, 40 mg per day total dose): 800 to 1600 ng/mL

COC(=O)[C@H]1[C@@H](OC(=O)c2ccccc2)C[C@@H]2CC[C@H]1N2C [Coc]
Coc [3]: 0

CCC(=O)C(CC(C)N(C)C)(c1ccccc1)c1ccccc1 (stereo not drawn) [methadone]
nup, urinary-parameter normalized urine methadone concentration [4, 8]: 7448 ng/mL and 9473 ng/mL | u, raw urine methadone concentration [4, 8]: 7049 ng/mL and 4935 ng/mL | nup, urinary-parameter normalized urine methadone concentration [4, 9]: 6966 ng/mL and 7381 ng/mL and 10913 ng/mL and 7430 ng/mL and 7208 ng/mL and 6254 ng/mL and 5532 ng/mL and 7790 ng/mL and 5852 ng/mL and 6881 ng/mL | u, raw urine methadone concentration [4, 9]: 6838 ng/mL and 6536 ng/mL and 5462 ng/mL and 5180 ng/mL and 7398 ng/mL and 5990 ng/mL and 4203 ng/mL and 8469 ng/mL and 3736 ng/mL and 5601 ng/mL | nup, mean [4, 10]: 7427 ng/mL | u, mean [4, 10]: 5950 ng/mL | nup, urinary-parameter normalized urine methadone concentration [4, 11]: 21153 ng/mL and 25720 ng/mL and 22145 ng/mL and 32208 ng/mL and 10174 ng/mL and 13051 ng/mL and 15585 ng/mL and 17845 ng/mL and 7585 ng/mL and 10815 ng/mL and 20168 ng/mL and 18777 ng/mL | u, raw urine methadone concentration [4, 11]: 1069 ng/mL and 1336 ng/mL and 2109 ng/mL and 1883 ng/mL and 646 ng/mL and 1246 ng/mL and 1285 ng/mL and 757 ng/mL and 4094 ng/mL and 1318 ng/mL and 3900 ng/mL and 915 ng/mL | nup, mean [4, 12]: 17265 ng/mL | u, mean [4, 12]: 1713 ng/mL | u, raw urine methadone concentration ([4]; Table C, patient two, dose 40): 174 ng/mL and 296 ng/mL | nup, urinary-parameter normalized urine methadone concentration ([4]; Table C, patient two, dose 50): 2924 ng/mL | u, raw urine methadone concentration ([4]; Table C, patient two, dose 50): 853 ng/mL | nup, urinary-parameter normalized urine methadone concentration ([4]; Table C, patient two, dose 65): 1367 ng/mL | nup, urinary-parameter normalized urine methadone concentration ([4]; Table C, patient two, dose 80): 1070 ng/mL | u, raw urine methadone concentration ([4]; Table C, patient two, dose 80): 1120 ng/mL | nup, mean [4, 13]: 1709 ng/mL | u, mean [4, 13]: 1456 ng/mL | nup, urinary-parameter normalized urine methadone concentration [4, 14]: 7728 ng/mL and 5944 ng/mL and 5117 ng/mL | u, raw urine methadone concentration [4, 14]: 4915 ng/mL and 6565 ng/mL and 9494 ng/mL | nup, urinary-parameter normalized urine methadone concentration ([4]; Table D, patient two, dose 110): 6580 ng/mL and 6703 ng/mL and 10880 ng/mL and 6025 ng/mL | nup, urinary-parameter normalized urine methadone concentration ([4]; Table D, patient two, dose 120): 8970 ng/mL and 6778 ng/mL and 8074 ng/mL and 11966 ng/mL and 6031 ng/mL | nup, mean [4, 15]: 7236 ng/mL | u, mean [4, 15]: 7036 ng/mL | Pred (flag: nup outside statistical range predicted for patient) ([4]; Table F, case #4, dose 140): High | nup, mean ([4]; Table F, mean of 11 tests, dose 120-140): 5130 ng/mL | u, mean ([4]; Table F, mean of 12 tests, dose 120-140): 8008 ng/mL | Pred (flag: nup outside statistical range predicted for patient) ([4]; Table G, case #5, dose 130): LOW and HIGH | nup, mean [4, 16]: 8396 ng/mL | u, mean [4, 16]: 10585 ng/mL | average population standard deviation of nup ([4]; acceptably compliant methadone patients): about 3000 | plasma methadone levels over time ([4]; patient two, Tables C and D, after discontinuing barbiturate-containing compounds): increased | migraine attacks during treatment (migraine; patient one, 36 months, 45 mg methadone): 2 migraine attacks | frequency and severity of migraines (migraine; patient one, titration to 45 mg methadone): migraines slowly decayed in frequency and severity | plasma methadone level related to migraine attacks (migraine; patient one, transient decrease after vomiting): below 80 ng/ml | migraine response (migraine; [17]): migraines ceased completely | plasma methadone level at which migraines ceased completely (migraine; [17]): above 135 ng/ml | renal excretion rate (mg/min) [5]: relatively constant | optimum/necessary (24-hour trough) plasma methadone concentration [6]: 150 to 600 ng/mL | adjusted squared multiple R, estimated versus measured plasma methadone concentration ([7]; FIG. 7): 0.987 | slope, estimated versus measured plasma methadone concentration ([7]; FIG. 7, linear regression, intercept -1.25 (SE 11.495), F-ratio 810): 0.970 (SE 0.034)

Oc1ccc2c3c1O[C@H]1[C@@H](O)CC[C@@]4(O)[C@@H](C2)N(CC2CCC2)CC[C@]314 [nalbuphine]
control of migraine pain (migraine; patient two, self-administered IM): failure

CN1C(=O)CN=C(c2ccccc2)c2cc(Cl)ccc21 [diazepam]
SEE of nup = k*Dose [1]: 806 | importance of urine pH for nup [1]: not important | nup per daily dose (coefficient of nup = k*Dose) [1]: 267(SE 16.9)

COc1ccc2c3c1O[C@H]1[C@@H](O)C=C[C@H]4[C@@H](C2)N(C)CC[C@@]341 [codeine]
mean codeine level (nup) ([2]; FIG. 13, patient four stabilized on 90 mg of codeine qd): 19,102 +/-3840 ng/ml | Opi (nup, codeine), mean ([2]; Table J, patient four, mean of 9 tests, 90 mg codeine qd): 19102 ng/mL
